Source: patent US8263606B2 (Xenon Pharmaceuticals Inc., priority 2008, dated 2012)
Counter-ions that a name gives are not always drawn.

Columns and labels:
sodium channel = experiment: Guanidine influx assay (14C-guanidine radiotracer flux, in vitro); assay type: cell-based, human or rat; details: guanidine influx assay using a known cell line that expresses a sodium channel
From the text: This example describes an in vitro assay for testing and profiling test agents against human or rat sodium channels stably expressed in cells of either an endogenous or recombinant origin. The assay is also useful for determining the IC50 of a sodium channel blocking compound. The assay is based on the guanidine flux assay described by Reddy, N. L., et al., J. Med. Chem. (1998), 41(17):3298-302.
The guanidine influx assay is a radiotracer flux assay used to determine ion flux activity of sodium channels in a high-throughput microplate-based format. The assay uses ^14C-guanidine hydrochloride in combination with various known sodium channel modulators, to assay the potency of test agents. Potency is determined by an IC50 calculation. Selectivity is determined by comparing potency of the compound for the channel of interest to its potency against other sodium channels (also called ‘selectivity profiling’).
Each of the test agents is assayed against cells that express the channels of interest. Voltage gated sodium channels are either TTX sensitive or insensitive. This property is useful when evaluating the activities of a channel of interest when it resides in a mixed population with other sodium channels. The following Table 1 summarizes cell lines useful in screening for a certain channel activity in the presence or absence of TTX.
It is also possible to employ recombinant cells expressing these sodium channels. Cloning and propagation of recombinant cells are known to those skilled in the art (see, for example, Klugbauer, N, et al., EMBO J. (1995), 14(6):1084-90; and Lossin, C., et al., Neuron (2002), 34, pp. 877-884).
Cells expressing the channel of interest are grown according to the supplier or in the case of a recombinant cell in the presence of selective growth media such as G418 (Gibco/Invitrogen). The cells are disassociated from the culture dishes with an enzymatic solution (Ix) Trypsin/EDTA (Gibco/Invitrogen) and analyzed for density and viability using haemocytometer (Neubauer). Disassociated cells are washed and resuspended in their culture media then plated into Scintiplates (Beckman Coulter Inc.) (approximately 100,000 cells/well) and incubated at 37° C./5% CO2 for 20-24 hours. After an extensive wash with Low sodium HEPES-buffered saline solution (LNHBSS) (150 mM Choline Chloride, […] (Sigma), 1 mM Calcium Chloride, 5 mM Potassium Chloride, 1 mM Magnesium Chloride, 10 mM Glucose) agents diluted with LNHBSS are added to each well. (Varying concentrations of test agent may be used). The activation/radiolabel mixture contains aconitine (Sigma) to increase the percentage of time that the sodium channels are open, and ^14C-guanidine hydrochloride (ARC) to measure flux through the voltage-gated sodium channels.
After loading the cells with test agent and activation/radiolabel mixture, the Scintiplates are incubated at ambient temperature. Following the incubation, the Scintplates are extensively washed with LNHBSS supplemented with guanidine (Sigma). The Scintiplates are dried and then counted using a Wallac MicroBeta TriLux (Perkin-Elmer Life Sciences). The ability of the test agent to block sodium channel activity is determined by comparing the amount of ^14C-guanidine present inside the cells expressing the different sodium channels.
The IC50 value of a test agent for a specific sodium channel may be determined using the above general method. […] Typically the mid-point concentration of test agent is set at 1 μM, and sequential concentrations of half dilutions greater or smaller are applied (e.g. 0.5 μM; 5 μM and 0.25 μM; 10 μM and 0.125 μM; 20 μM etc.). The IC50 curve is calculated using the 4 Parameter Logistic Model or Sigmoidal Dose-Response Model formula (fit=(A+((B−A)/(1+((C/x)^D)))).
The fold selectivity, factor of selectivity or multiple of selectivity, is calculated by dividing the IC50 value of the test sodium channel by the reference sodium channel, for example, Nav1.5. […]

CYP3A4 = CYP3A4 (Homo sapiens, UniProt P08684); experiment: Cytochrome P450 (CYP450) Inhibition Assay, CYP3A4 (Vivid fluorescence, BOMCC substrate); details: human, P450 Baculosomes (recombinant CYP3A4), probe BOMCC (Vivid substrate)
Chain of CYP3A4 (P08684 whole entry): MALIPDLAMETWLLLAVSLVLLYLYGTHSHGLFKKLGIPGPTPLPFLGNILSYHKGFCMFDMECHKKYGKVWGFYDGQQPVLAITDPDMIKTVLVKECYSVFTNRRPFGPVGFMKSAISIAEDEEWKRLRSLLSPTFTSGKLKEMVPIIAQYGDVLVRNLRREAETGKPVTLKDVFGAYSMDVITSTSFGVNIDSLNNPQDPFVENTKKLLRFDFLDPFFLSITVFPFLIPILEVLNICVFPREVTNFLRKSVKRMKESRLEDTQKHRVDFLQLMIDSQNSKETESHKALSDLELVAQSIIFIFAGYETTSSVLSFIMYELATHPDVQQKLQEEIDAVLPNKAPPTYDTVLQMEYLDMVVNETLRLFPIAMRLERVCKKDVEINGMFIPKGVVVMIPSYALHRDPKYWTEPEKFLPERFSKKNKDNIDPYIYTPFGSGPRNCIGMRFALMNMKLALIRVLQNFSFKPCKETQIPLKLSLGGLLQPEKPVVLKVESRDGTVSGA

SMILES	IC50 (sodium channel) [µM]	inhibition at 10 µM (CYP3A4) [%]	IC50 (sodium channel; activity level class) [µM]
O=C(Nc1ccccc1C(F)(F)F)c1ccc(CN2C(=O)C3(COc4cc5c(cc43)CCO5)c3ccccc32)cc1 (stereo not drawn) [Example 12.26, 4-[(2′-oxo-5,6-dihydrospiro[benzo[1,2-b:5,4-b′]difuran-3,3′-indol]-1′(2′H)-yl)methyl]-N-[2-(trifluoromethyl)phenyl]benzamide]	1 to 10	> 50	
O=C1N(C[C@H]2CCCO2)c2cccc(-c3cc(C(F)(F)F)cc(C(F)(F)F)c3)c2C12COc1cc3c(cc12)CCO3 (stereo partly drawn) [Example 16.5, 4′-[3,5-bis(trifluoromethyl)phenyl]-1′-[(2R)-tetrahydrofuran-2-ylmethyl]-5,6-dihydrospiro[benzo[1,2-b:5,4-b′]difuran-3,3′-indol]-2′(1′H)-one]	0.1 to 1	> 50	
O=C1N(CC2CCNCC2)c2ccccc2C12COc1cc3c(cc12)OCCO3 (stereo not drawn) [Example 11.99, 1-(piperidin-4-ylmethyl)-2,3-dihydrospiro[furo[2,3-g][1,4]benzodioxine-8,3′-indol]-2′(1′H)-one hydrochloride]	1 to 10	< 50	
O=C1N(Cc2cnc(Cl)s2)c2ccccc2C12COc1cc3c(cc12)OCO3 (stereo not drawn) [Example 11, 1′-[(2-chloro-1,3-thiazol-5-yl)methyl]spiro[furo[2,3-f][1,3]benzodioxole-7,3′-indol]-2′(1′H)-one]	0.001 to 0.1	> 50	
O=C1N(Cc2cccc([N+](=O)[O-])c2)c2ccccc2C12COc1cc3c(cc12)OCCO3 (stereo not drawn) [Example 7.10]		< 50	0.001 to 0.1
COCCOc1ccc2c(c1)C1(CO2)C(=O)Nc2ccccc21 (stereo not drawn) [Example 3.47, 5-(2-methoxyethoxy)spiro[1-benzofuran-3,3′-indol]-2′(1′H)-one]		< 50	1 to 10
O=C1N(Cc2cccc[n+]2[O-])c2ccccc2C12COc1cc3c(cc12)OCCO3 (stereo not drawn) [Example 11.95, 1′-[(1-oxidopyridin-2-yl)methyl]-2,3-dihydrospiro[furo[2,3-g][1,4]benzodioxine-8,3′-indol]-2′(1′H)-one]	0.1 to 1	< 50	
O=C1N(Cc2cc(F)cc(F)c2)c2ccccc2C12COc1cc3c(cc12)OCCO3 (stereo not drawn) [Example 7.20, 1′-(3,5-difluorobenzyl)-2,3-dihydrospiro[furo[2,3-g][1,4]benzodioxine-8,3′-indol]-2′(1′H)-one]		> 50	0.001 to 0.1
COCCOCCN1C(=O)C2(COc3cc(OCCOC)ccc32)c2ccccc21 (stereo not drawn) [Example 9.75, 6-(2-methoxyethoxy)-1′-[2-(2-methoxyethoxy)ethyl]spiro[1-benzofuran-3,3′-indol]-2′(1′H)-one]	0.1 to 1	< 50	
CC(C)NC(=O)c1coc(CN2C(=O)C3(COc4cc5c(cc43)OCO5)c3ccccc32)n1 (stereo not drawn) [Example 13.6, N-(1-methylethyl)-2-[(2′-oxospiro[furo[2,3-f][1,3]benzodioxole-7,3′-indol]-1′(2′H)-yl)methyl]-1,3-oxazole-4-carboxamide]	0.001 to 0.1	> 50	
O=C1N(Cc2ccc(N3CCOCC3)cc2)c2ccccc2C12COc1cc3c(cc12)CCO3 (stereo not drawn) [Example 11.46, t-(4-morpholin-4-ylbenzyl)-5,6-dihydrospiro[benzo[1,2-b:5,4-b′]difuran-3,3′-indol]-2′(1′H)-one]	0.1 to 1	> 50	
O=C1Nc2ccc3ncsc3c2C12COc1cc3c(cc12)OCCO3 (stereo not drawn) [Example 3.49, 2,3-dihydrospiro[furo[2,3-g][1,4]benzodioxine-8,8′-[1,3]thiazolo[5,4-e]indol]-7′(6′H)-one]		> 50	1 to 10
O=C1N(Cc2ccc(F)cc2Cl)c2ccccc2C12COc1cc3c(cc12)OCCO3 (stereo not drawn) [Example 7.22, 1′-(2-chloro-4-fluorobenzyl)-2,3-dihydrospiro[furo[2,3-g][1,4]benzodioxine-8,3′-indol]-2′(1′H)-one]		< 50	0.001 to 0.1
O=C1N(Cc2ccc(N[C@@H]3CCNC3)cc2)c2ccccc2C12COc1cc(F)c(F)cc12 (stereo partly drawn) [Example 33.2, 5,6-difluoro-1′-{4-[(3R)-pyrrolidin-3-ylamino]benzyl}spiro[1-benzofuran-3,3′-indol]-2′(1′H)-one hydrochloride]	1 to 10	> 50	
Cn1c(CN2C(=O)C3(COc4cc5c(cc43)CCO5)c3ccccc32)cnc1Cl (stereo not drawn) [Example 4.2, 1′-[(2-chloro-1-methyl-1H-imidazol-5-yl)methyl]-5,6-dihydrospiro[benzo[1,2-b:5,4-b′]difuran-3,3′-indol]-2′(1′H)-one]		> 50	0.001 to 0.1
CCn1cncc1CN1C(=O)C2(COc3cc4c(cc32)CCO4)c2ccccc21 (stereo not drawn) [Example 4.21, 1′-[(1-ethyl-1H-imidazol-5-yl)methyl]-5,6-dihydrospiro[benzo[1,2-b:5,4-b′]difuran-3,3′-indol]-2′(1′H)-one]		> 50	0.1 to 1
O=C1N(CC2CCNCC2)c2ccccc2C12COc1cc3c(cc12)CCO3 (stereo not drawn) [Example 11.5, 1-(piperidin-4-ylmethyl)-5,6-dihydrospiro[benzo[1,2-b:5,4-b′]difuran-3,3′-indol]-2′(1′H)-one]	1 to 10	< 50	
Cc1nonc1CN1C(=O)C2(COc3cc4c(cc32)OCCO4)c2ccccc21 (stereo not drawn) [Example 7.18, 1′-[(4-methyl-1,2,5-oxadiazol-3-yl)methyl]-2,3-dihydrospiro[furo[2,3-g][1,4]benzodioxine-8,3′-indol]-2′(1′H)-one]		< 50	0.001 to 0.1
CN1CCN(CN2C(=O)C3(COc4cc5c(cc43)OCO5)c3ccccc32)CC1 (stereo not drawn) [Example 11.63, 1′-[(4-methylpiperazin-1-yl)methyl]spiro[furo[2,3-f][1,3]benzodioxole-7,3′-indol]-2′(1′H)-one hydrogen chloride]	0.001 to 0.1	> 50	
O=C1N(Cc2ccc(C(F)(F)F)cn2)c2ccccc2C12COc1cc3c(cc12)OCCO3 (stereo not drawn) [Example 7.12]		> 50	0.001 to 0.1
O=C(Nc1ccccc1F)c1ccc(CN2C(=O)C3(COc4cc5c(cc43)CCO5)c3ccccc32)cc1 (stereo not drawn) [Example 12.29, N-(2-fluorophenyl)-4-[(2′-oxo-5,6-dihydrospiro[benzo[1,2-b:5,4-b′]difuran-3,3′-indol]-1′(2′H)-yl)methyl]benzamide]	0.1 to 1	< 50	
O=C1N(Cc2ncccc2C(F)(F)F)c2ccccc2C12COc1cc3c(c(F)c12)OCCO3 (stereo not drawn) [Example 5.26, 9-fluoro-1′-{[3-(trifluoromethyl)pyridin-2-yl]methyl}-2,3-dihydrospiro[furo[2,3-g][1,4]benzodioxine-8,3′-indol]-2′(1′H)-one]		< 50	0.001 to 0.1
COc1ccc2c(c1)OCC21C(=O)N(CC2CCOCC2)c2ccccc21 (stereo not drawn) [Example 9.35, 6-methoxy-1′-(tetrahydro-2H-pyran-4-ylmethyl)spiro[1-benzofuran-3,3′-indol]-2′(1′H)-one]		> 50	0.1 to 1
O=C1Nc2ccccc2C12CCOc1cc3c(cc12)CCO3 (stereo not drawn) [Example 3.24, 2,3,6,7-tetrahydrospiro[furo[3,2-g]chromene-5,3′-indol]-2′(1′H)-one]		< 50	1 to 10
